Like-named read-outs stand apart in the source and are kept apart here.
Tests used:
BVDV (NADL strain) = experiment: Yield Reduction Assay; assay type: cell-based, Bovine Viral Diarrhea virus
Method: The assay was performed as described by Baginski, S. G.; Pevear, D. C.; Seipel, M.; Sun, S. C. C.; Benetatos, C. A.; Chunduru, S. K.; Rice, C. M. and M. S. Collett “Mechanism of action of a pestivirus antiviral compound” PNAS USA 2000, 97(14), 7981-7986, with minor modifications. Briefly, MDBK cells were seeded onto 24-well plates (2×10^5 cells per well) 24 hours before infection with BVDV (NADL strain) at a multiplicity of infection (MOI) of 0.1 PFU per cell. Serial dilutions of test compounds were added to cells in a final concentration of 0.5% DMSO in growth medium. Each dilution was tested in triplicate. After three days, cell cultures (cell monolayers and supernatants) were lysed by three freeze-thaw cycles, and virus yield was quantified by plaque assay. Briefly, MDBK cells were seeded onto 6-well plates (5×10^5 cells per well) 24 h before use. Cells were inoculated with 0.2 mL of test lysates for 1 hour, washed and overlaid with 0.5% agarose in growth medium. After 3 days, cell monolayers were fixed with 3.5% formaldehyde and stained with 1% crystal violet (w/v in 50% ethanol) to visualize plaques. FIG. 9 is a graphical illustration of the results from the Yield Reduction Assay. FIG. 8 is an image of BVDV yield reduction in the presence of increasing concentrations of β-D-2′-CH3-riboC.

[1] = system: Human bone marrow cells (CFU-GM); experiment: Human bone marrow toxicity, CFU-GM clonogenic assay; assay type: cell-based; conditions: Homo sapiens, CFU-GM, read-out: IC50 CFU-GM
Source text: Human bone marrow cells were collected from normal healthy volunteers and the mononuclear population was separated by Ficoll-Hypaque gradient centrifugation as described previously by Sommadossi J-P, Carlisle R. “Toxicity of 3′-azido-3′-deoxythymidine and 9-(1,3-dihydroxy-2-propoxymethyl)guanine for normal human hematopoietic progenitor cells in vitro” Antimicrobial Agents and Chemotherapy 1987; 31:452-454; and Sommadossi J-P, Schinazi R F, Chu C K, Xie M-Y. “Comparison of cytotoxicity of the (−)- and (+)-enantiomer of 2′,3′-dideoxy-3′-thiacytidine in normal human bone marrow progenitor cells” Biochemical Pharmacology 1992; 44:1921-1925. The culture assays for CFU-GM and BFU-E were performed using a bilayer soft agar or methylcellulose method. Drugs were diluted in tissue culture medium and filtered. After 14 to 18 days at 37° C. in a humidified atmosphere of 5% CO2 in air, colonies of greater than 50 cells were counted using an inverted microscope. The results in Table 4 are presented as the percent inhibition of colony formation in the presence of drug compared to solvent control cultures.

BVDV = experiment: Plaque Reduction Assay; assay type: cell-based, Bovine Viral Diarrhea virus; conditions: Bovine viral diarrhea virus isolates and strains
Method: For each compound the effective concentration was determined in duplicate 24-well plates by plaque reduction assays. Cell monolayers were infected with 100 PFU/well of virus. Then, serial dilutions of test compounds in MEM supplemented with 2% inactivated serum and 0.75% of methyl cellulose were added to the monolayers. Cultures were further incubated at 37° C. for 3 days, then fixed with 50% ethanol and 0.8% Crystal Violet, washed and air-dried. FIG. 7 is a graphical illustration of the results from the Plaque Reduction Assay. FIG. 8 is an image of BVDV plaque formation in the presence of increasing concentrations of β-D-2′-CH3-riboU.

[2] = Bioavailability assay in Cynomolgus monkeys; assay type: in vivo, Cynomolgus monkey; conditions: for Mean Norm AUC: mean of 3 monkeys
Method: Within 1 week prior to the study initiation, the cynomolgus monkey was surgically implanted with a chronic venous catheter and subcutaneous venous access port (VAP) to facilitate blood collection and underwent a physical examination including hematology and serum chemistry evaluations and the body weight was recorded. Each monkey (six total), received approximately 250 uCi of ^3H activity with each dose of active compound, namely β-D-2′-CH3-riboG at a dose level of 10 mg/kg at a dose concentration of 5 mg/mL, either via an intravenous bolus (3 monkeys, IV), or via oral gavage (3 monkeys, PO). Each dosing syringe was weighed before dosing to gravimetrically determine the quantity of formulation administered. Urine samples were collected via pan catch at the designated intervals (approximately 18-0 hours pre-dose, 0-4, 4-8 and 8-12 hours post-dosage) and processed. Blood samples were collected as well (pre-dose, 0.25, 0.5, 1, 2, 3, 6, 8, 12 and 24 hours post-dosage) via the chronic venous catheter and VAP or from a peripheral vessel if the chronic venous catheter procedure should not be possible. The blood and urine samples were analyzed for the maximum concentration (Cmax), time when the maximum concentration was achieved (Tmax), area under the curve (AUC), half life of the dosage concentration (T1/2), clearance (CL), steady state volume and distribution (Vss) and bioavailability (F), which are tabulated in Tables 2 and 3, and graphically illustrated in FIGS. 2 and 3, respectively.

in vitro [3] = experiment: in vitro
in vitro [4] = conditions: cattle
[5] = cynomolgus monkey, blood, Cynomolgus monkeys, IV 10 mg/kg
[6] = cynomolgus monkey, blood, Cynomolgus monkeys, PO 10 mg/kg

Question: Which results are given for CC1(O)[C@@H](O)[C@@H](CO)O[C@H]1n1cnc2c(=O)[nH]c(N)nc21 (stereo partly drawn) [β-D-2′-CH3-riboG]?
Answer: Conc. for 6-log Reduction (BVDV (NADL strain)): 20 μM; Yield Reduction 6 log10 reduction (μM) (BVDV (NADL strain)): 20 μM; reduction in yield reduction assay (BVDV (NADL strain)): 4 log; EC90 (BVDV (NADL strain); Bovine viral diarrhea virus isolates and strains, Table 13, BVDV): 3 µM; IC50 [1]: > 10 µM; EC90 (BVDV; 72 h, concentration to obtain 90% virus suppression, 3 days, read-out: EC90): < 9 µM; EC90 (BVDV; Table 13, BVDV, 90% virus suppression, read-out: Plaque Reduction (EC90)): < 9 µM; Norm AUC ([2]; IV Monkey 1): 293.2 ng·h/mL/mg; Norm AUC ([2]; IV Monkey 2): 268.3 ng·h/mL/mg; Norm AUC ([2]; IV Monkey 3): 293.4 ng·h/mL/mg; Mean Norm AUC ([2]; IV): 284.9 ng·h/mL/mg; Norm AUC ([2]; PO Monkey 1): 26.1 ng·h/mL/mg; Norm AUC ([2]; PO Monkey 2): 29.0 ng·h/mL/mg; Norm AUC ([2]; PO Monkey 3): 61.3 ng·h/mL/mg; Mean Norm AUC ([2]; PO): 38.8 ng·h/mL/mg; F ([2]; Table 3, Cynomolgus monkeys, 10 mg/kg): 13.8%; bioavailability ([2]; cynomolgus monkey, blood, 10 mg/kg, Table 2, monkeys, PO vs IV, read-out: F (oral bioavailability)): 13.6%; AUC ([2]; cynomolgus monkey, blood, iv, 10 mg/kg, Cynomolgus monkeys, IV 10 mg/kg): 8760 ± 4210 ng·h/mL; AUC ([2]; cynomolgus monkey, blood, iv, 10 mg/kg, IV Monkey 1, dose 46.44 mg (10 mg/kg)): 13600 ng·h/mL; AUC ([2]; cynomolgus monkey, blood, iv, 10 mg/kg, IV Monkey 2, dose 24.53 mg (10 mg/kg)): 6580 ng·h/mL; AUC ([2]; cynomolgus monkey, blood, iv, 10 mg/kg, IV Monkey 3, dose 20.72 mg (10 mg/kg)): 6080 ng·h/mL; AUC ([2]; cynomolgus monkey, blood, po, 10 mg/kg, Cynomolgus monkeys, PO 10 mg/kg): 1170 ± 590 ng·h/mL; AUC ([2]; cynomolgus monkey, blood, po, 10 mg/kg, PO Monkey 1, dose 29.04 mg (10 mg/kg)): 758 ng·h/mL; AUC ([2]; cynomolgus monkey, blood, po, 10 mg/kg, PO Monkey 2, dose 30.93 mg (10 mg/kg)): 898 ng·h/mL; AUC ([2]; cynomolgus monkey, blood, po, 10 mg/kg, PO Monkey 3, dose 30.04 mg (10 mg/kg)): 1840 ng·h/mL; Cmax [2, 5]: 6950 ± 1890 ng/mL; Tmax [2, 5]: 0.25 h; clearance [2, 5]: 21.3 mL/min/kg; half-life [2, 5]: 7.9 ± 5.4 h; Vd ([2]; cynomolgus monkey, blood, Cynomolgus monkeys, IV 10 mg/kg, read-out: Vss): 2.09 ± 0.54 L/kg; Cmax [2, 6]: 218 ± 132 ng/mL; Tmax [2, 6]: 2 ± 1 h; half-life [2, 6]: 10.3 ± 4.1 h; CC50 (in vitro [3]; cattle (Bos taurus)): > 100 µM; CC50 at 4 days (in vitro [3]; hamster): 20 µM; CC50 (in vitro [4]): 100 µM

Reference: US20180235993A1 (priority 2000, published 2018)
